In ChEMBL document CHEMBL3817825, “Synthesis and biological evaluation of Schiff base-linked imidazolyl naphthalimides as novel potential anti-MRSA agents” (2016):
Converted amounts (≈) assume the structure as drawn.

Key:
Staphylococcus aureus [1] = assay: Antibacterial activity against methicillin-resistant Staphylococcus aureus N315 after 24 hrs by two fold serial dilution method; type: functional; conditions: N315, 24 h
Staphylococcus aureus [2] = assay: Antibacterial activity against Staphylococcus aureus ATCC25923 after 24 hrs by two fold serial dilution method; type: functional; conditions: ATCC25923, 24 h
Bacillus subtilis = assay: Antibacterial activity against Bacillus subtilis ATCC6633 after 24 hrs by two fold serial dilution method; type: functional; conditions: ATCC6633, 24 h
Micrococcus luteus = assay: Antibacterial activity against Micrococcus luteus ATCC4698 after 24 hrs by two fold serial dilution method; type: functional; conditions: ATCC4698, 24 h
Escherichia coli [3] = assay: Antibacterial activity against Escherichia coli DH52 after 24 hrs by two fold serial dilution method; type: functional; conditions: DH52, 24 h
Escherichia coli [4] = assay: Antibacterial activity against Escherichia coli JM109 after 24 hrs by two fold serial dilution method; type: functional; conditions: JM109, 24 h
Shigella dysenteriae = assay: Antibacterial activity against Shigella dysenteriae after 24 hrs by two fold serial dilution method; type: functional
Pseudomonas aeruginosa = assay: Antibacterial activity against Pseudomonas aeruginosa ATCC27853 after 24 hrs by two fold serial dilution method; type: functional; conditions: ATCC27853, 24 h
Bacillus = assay: Antibacterial activity against Bacillus proteus ATCC13315 after 24 hrs by two fold serial dilution method; type: functional; conditions: ATCC13315, 24 h
Salmonella typhi = assay: Antibacterial activity against Bacillus typhi after 24 hrs by two fold serial dilution method; type: functional, Salmonella enterica subsp. enterica serovar Typhi; conditions: Salmonella enterica
Candida albicans = assay: Antifungal activity against Candida albicans ATCC76615 after 24 hrs by two fold serial dilution method; type: functional; conditions: ATCC76615, 24 h
Candida = assay: Antifungal activity against Candida mycoderma ATCC10231 after 24 hrs by two fold serial dilution method; type: functional; conditions: ATCC10231, 24 h
Cyberlindnera jadinii = assay: Antifungal activity against Candida utilis ATCC9950 after 24 hrs by two fold serial dilution method; type: functional; conditions: Williopsis jadinii, ATCC9950, 24 h
Aspergillus flavus = assay: Antifungal activity against Aspergillus flavus ATCC204304 after 24 hrs by two fold serial dilution method; type: functional; conditions: ATCC204304, 24 h
Saccharomyces cerevisiae = assay: Antifungal activity against Beer yeast ATCC9763 after 24 hrs by two fold serial dilution method; type: functional; conditions: ATCC9763, 24 h
Escherichia coli [5] = assay: Potency index, ratio of chloromycin MIC to compound MIC for Escherichia coli JM109; type: functional

Compound	MIC (Staphylococcus aureus [1]) [µM]	MIC (Staphylococcus aureus [2]) [µM]	MIC (Bacillus subtilis) [µM]	MIC (Micrococcus luteus) [µM]	MIC (Escherichia coli [3]) [µM]	MIC (Escherichia coli [4]) [µM]	MIC (Shigella dysenteriae) [µM]	MIC (Pseudomonas aeruginosa) [µM]	MIC (Bacillus) [µM]	MIC (Salmonella typhi) [µM]	MIC (Candida albicans) [µM]	MIC (Candida) [µM]	MIC (Cyberlindnera jadinii) [µM]	MIC (Aspergillus flavus) [µM]	MIC (Saccharomyces cerevisiae) [µM]	Ratio (Escherichia coli [5])
CCCCc1nc(Cl)c(/C=N/N2C(=O)c3cccc4c(N5CCOCC5)ccc(c34)C2=O)n1Cc1ccc(Cl)c(Cl)c1	370 (≈ 231 µg/mL)	740 (≈ 462 µg/mL)	370 (≈ 231 µg/mL)	370 (≈ 231 µg/mL)	180 (≈ 112 µg/mL)	370 (≈ 231 µg/mL)	0.74 (≈ 0.462 µg/mL)	740 (≈ 462 µg/mL)	180 (≈ 112 µg/mL)	0.74 (≈ 0.462 µg/mL)	370 (≈ 231 µg/mL)	370 (≈ 231 µg/mL)	370 (≈ 231 µg/mL)	740 (≈ 462 µg/mL)	180 (≈ 112 µg/mL)	
CCCCc1nc(Cl)c(/C=N/N2C(=O)c3cccc4c(N5CCOCC5)ccc(c34)C2=O)[nH]1	70 (≈ 32.6 µg/mL)	270 (≈ 126 µg/mL)	550 (≈ 256 µg/mL)	270 (≈ 126 µg/mL)	270 (≈ 126 µg/mL)	270 (≈ 126 µg/mL)	0.07 (≈ 0.0326 µg/mL)	70 (≈ 32.6 µg/mL)	270 (≈ 126 µg/mL)	0.27 (≈ 0.126 µg/mL)	270 (≈ 126 µg/mL)	140 (≈ 65.2 µg/mL)	550 (≈ 256 µg/mL)	550 (≈ 256 µg/mL)	270 (≈ 126 µg/mL)	
CCCCc1nc(Cl)c(/C=N/N2C(=O)c3cccc4c(N5CCOCC5)ccc(c34)C2=O)n1Cc1ccc(OC)cc1	440 (≈ 258 µg/mL)	440 (≈ 258 µg/mL)	440 (≈ 258 µg/mL)	870 (≈ 510 µg/mL)	440 (≈ 258 µg/mL)	870 (≈ 510 µg/mL)	0.44 (≈ 0.258 µg/mL)	440 (≈ 258 µg/mL)	220 (≈ 129 µg/mL)	0.44 (≈ 0.258 µg/mL)	430 (≈ 252 µg/mL)	870 (≈ 510 µg/mL)	430 (≈ 252 µg/mL)	430 (≈ 252 µg/mL)	220 (≈ 129 µg/mL)	
CCCCCCCCCCCCn1c(CCCC)nc(Cl)c1/C=N/N1C(=O)c2cccc3c(N4CCOCC4)ccc(c23)C1=O	200 (≈ 127 µg/mL)	400 (≈ 254 µg/mL)	800 (≈ 507 µg/mL)	400 (≈ 254 µg/mL)	800 (≈ 507 µg/mL)	10 (≈ 6.34 µg/mL)	0.8 (≈ 0.507 µg/mL)	800 (≈ 507 µg/mL)	800 (≈ 507 µg/mL)	0.8 (≈ 0.507 µg/mL)	810 (≈ 514 µg/mL)	810 (≈ 514 µg/mL)	10 (≈ 6.34 µg/mL)	810 (≈ 514 µg/mL)	400 (≈ 254 µg/mL)	10
CCCCc1nc(Cl)c(/C=N/N2C(=O)c3cccc4c(N5CCCC5)ccc(c34)C2=O)[nH]1	280 (≈ 126 µg/mL)	570 (≈ 256 µg/mL)	570 (≈ 256 µg/mL)	280 (≈ 126 µg/mL)	280 (≈ 126 µg/mL)	280 (≈ 126 µg/mL)	0.57 (≈ 0.256 µg/mL)	570 (≈ 256 µg/mL)	570 (≈ 256 µg/mL)	0.57 (≈ 0.256 µg/mL)	140 (≈ 63 µg/mL)	140 (≈ 63 µg/mL)	280 (≈ 126 µg/mL)	570 (≈ 256 µg/mL)	570 (≈ 256 µg/mL)	
CCCCc1nc(Cl)c(/C=N/N2C(=O)c3cccc4c(N5CCOCC5)ccc(c34)C2=O)n1Cc1ccc(Cl)cc1Cl	370 (≈ 231 µg/mL)	180 (≈ 112 µg/mL)	370 (≈ 231 µg/mL)	180 (≈ 112 µg/mL)	740 (≈ 462 µg/mL)	370 (≈ 231 µg/mL)	0.37 (≈ 0.231 µg/mL)	180 (≈ 112 µg/mL)	370 (≈ 231 µg/mL)	0.37 (≈ 0.231 µg/mL)	370 (≈ 231 µg/mL)	370 (≈ 231 µg/mL)	180 (≈ 112 µg/mL)	180 (≈ 112 µg/mL)	370 (≈ 231 µg/mL)	
CCCCc1nc(Cl)c(/C=N/N2C(=O)c3cccc4c(N5CCOCC5)ccc(c34)C2=O)n1Cc1ccc(C)cc1	450 (≈ 257 µg/mL)	220 (≈ 125 µg/mL)	890 (≈ 507 µg/mL)	450 (≈ 257 µg/mL)	890 (≈ 507 µg/mL)	60 (≈ 34.2 µg/mL)	0.11 (≈ 0.0627 µg/mL)	450 (≈ 257 µg/mL)	450 (≈ 257 µg/mL)	0.45 (≈ 0.257 µg/mL)	450 (≈ 257 µg/mL)	900 (≈ 513 µg/mL)	110 (≈ 62.7 µg/mL)	900 (≈ 513 µg/mL)	450 (≈ 257 µg/mL)	
OC(Cn1cncn1)(Cn1cncn1)c1ccc(F)cc1F [FLUCONAZOLE]											3 (≈ 0.919 µg/mL)	10 (≈ 3.06 µg/mL)	30 (≈ 9.19 µg/mL)	840 (≈ 257 µg/mL)	50 (≈ 15.3 µg/mL)	
CCCCc1nc(Cl)c(/C=N/N2C(=O)c3cccc4c(N5CCOCC5)ccc(c34)C2=O)n1Cc1ccccc1Cl	430 (≈ 254 µg/mL)	870 (≈ 514 µg/mL)	430 (≈ 254 µg/mL)	870 (≈ 514 µg/mL)	870 (≈ 514 µg/mL)	110 (≈ 65 µg/mL)	0.22 (≈ 0.13 µg/mL)	870 (≈ 514 µg/mL)	430 (≈ 254 µg/mL)	0.43 (≈ 0.254 µg/mL)	430 (≈ 254 µg/mL)	870 (≈ 514 µg/mL)	430 (≈ 254 µg/mL)	220 (≈ 130 µg/mL)	430 (≈ 254 µg/mL)	
CCCCc1nc(Cl)c(/C=N/N2C(=O)c3cccc4c(N5CCOCC5)ccc(c34)C2=O)n1Cc1cccc(F)c1	440 (≈ 253 µg/mL)	220 (≈ 126 µg/mL)	440 (≈ 253 µg/mL)	440 (≈ 253 µg/mL)	440 (≈ 253 µg/mL)	440 (≈ 253 µg/mL)	0.89 (≈ 0.511 µg/mL)	440 (≈ 253 µg/mL)	220 (≈ 126 µg/mL)	0.89 (≈ 0.511 µg/mL)	440 (≈ 253 µg/mL)	440 (≈ 253 µg/mL)	440 (≈ 253 µg/mL)	440 (≈ 253 µg/mL)	440 (≈ 253 µg/mL)	
